{"source": "PubChem BioAssay AID463199", "about": "(Broad Institute, 2010)", "note": "Calls of active or inactive are those of the source.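 Rule for the calls: active = AC50, the dose giving half-maximal effect, exceeds a fixed cutoff for a compound that rescues yeast growth under heat; inactive = the rest, inconclusive results apart.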"}
{"system": "S. cerevisiae Burl-1 ts mutant growth, BacTiter-Glo, 38.5C 24 h", "assay": "growth induction of Burl-1 ts yeast mutant, dose response, counter-screen for SUMOylation pathway inhibitor project, whole organism, S. cerevisiae, luminescence (AID 463199)"}
{"smiles": "COc1ccccc1CSc1ncc(-c2ccc([N+](=O)[O-])cc2)[nH]1", "AC50": "> 42 µM (inactive)"}
{"smiles": "CCOc1ccc(-c2c(C(=O)N/N=C/c3ccncc3)nnn2-c2nonc2N)cc1", "AC50": "> 42 µM (inactive)"}
{"smiles": "COCCCN1C(=O)c2ccc(C(=O)Nc3ccc(OC)cc3OC)cc2C1=O", "AC50": "> 42 µM (inactive)"}
{"smiles": "Cc1ccc(-n2c(-c3ccco3)nc3c(cnn3-c3ccc(C)cc3)c2=O)cc1", "AC50": "> 42 µM (inactive)"}
{"smiles": "Cc1ccc(/C=C/C(=O)O)cc1S(=O)(=O)N(CCO)CCO", "AC50": "> 42 µM (inactive)"}
{"smiles": "CCCNC(=O)COC(=O)CCC(=O)c1cccs1", "AC50": "> 42 µM (inactive)"}
{"smiles": "C/C(=N/Nc1ccc(F)cc1)c1ccc(Cl)s1", "AC50": "> 42 µM (inactive)"}
{"smiles": "Cc1cc(C)n2nc(SCC(=O)NC3CCCC(C)C3C)nc2n1", "note": "(centres undefined)", "AC50": "> 42 µM (inactive)"}
{"smiles": "COc1ccc(C(=O)N2CCN(c3ccc(NC(=O)c4cccnc4)cc3)CC2)cc1", "AC50": "> 42 µM (inactive)"}
{"smiles": "C/C(=N\\NC(=O)c1cccc(N/N=C(\\C)c2ccc([N+](=O)[O-])cc2)c1)c1ccc([N+](=O)[O-])cc1", "AC50": "> 42 µM (inactive)"}
{"smiles": "Cc1ccc(NC(=O)/C=N/OCC(=O)NCc2ccccc2Cl)cc1", "AC50": "> 42 µM (inactive)"}
{"smiles": "C=CCn1c(-c2ccc(OC)cc2)nc2ccccc21", "AC50": "> 42 µM (inactive)"}
{"smiles": "COc1ccc(CN2C(=O)c3c(c(C)n(C)c3C)C2C(=O)NC2CCC(C)CC2)cc1", "note": "(centres undefined)", "AC50": "> 42 µM (inactive)"}
{"smiles": "CC(=O)Nc1ccccc1C(=O)C(=O)Nc1ccc(C(=O)NCC2CCCO2)cc1", "note": "(centres undefined)", "AC50": "> 42 µM (inactive)"}
{"smiles": "COCCCn1c(=O)c2ccccc2n(Cc2ccccc2C)c1=O", "AC50": "> 42 µM (inactive)"}
{"smiles": "Cc1cc(NC(=O)c2ccccc2F)n(C(C)(C)C)n1", "AC50": "> 42 µM (inactive)"}
{"smiles": "COC(=O)c1ccccc1NC(NC(=O)c1ccco1)C(=O)c1ccccc1", "note": "(centres undefined)", "AC50": "> 42 µM (inactive)"}
{"smiles": "CN(C)S(=O)(=O)c1ccc(Cl)c(NC(=O)CN2C(=O)NC(C)(C3CC3)C2=O)c1", "note": "(centres undefined)", "AC50": "> 42 µM (inactive)"}
{"smiles": "CN1C(=O)c2ccc(NC(=S)NC(=O)C(C)(C)C)cc2C1=O", "AC50": "> 42 µM (inactive)"}
{"smiles": "COc1ccccc1/C=C/C(=O)N1CCc2cc(OC)c(OC)cc2C1C", "note": "(centres undefined)", "AC50": "> 42 µM (inactive)"}
{"smiles": "O=C(Cc1ccc(F)cc1)Nc1nc(-c2ccc(F)cc2)cs1", "AC50": "> 42 µM (inactive)"}
{"smiles": "Cc1ccc(C)c(NC(=O)COC(=O)c2ccc3c(c2)OCO3)c1", "AC50": "> 42 µM (inactive)"}
{"smiles": "CCN1C(=O)N(C)[C@@H](c2ccccc2)C(C(=O)OC)=C1C", "AC50": "> 42 µM (inactive)"}
{"smiles": "COc1ccc(OC(=O)c2ccc(Cl)cc2)c(C(C)=O)c1", "AC50": "> 42 µM (inactive)"}
{"smiles": "CCCN1C(=O)c2ccccc2NC1c1ccc(C)cc1", "note": "(centres undefined)", "AC50": "> 42 µM (inactive)"}
{"smiles": "COc1ccc(N(CC(=O)NCc2ccc(C)cc2)S(=O)(=O)c2c(C)nn(C)c2C)cc1", "AC50": "> 42 µM (inactive)"}
{"smiles": "Cc1ccc(Nc2cc(C)nc3c(C)ccc([N+](=O)[O-])c23)cc1", "AC50": "> 21 µM (inactive)"}
{"smiles": "CC1(C)Cc2c(c(N3CCCC3)nc3sc4c(N5CCN(CCO)CC5)ncnc4c23)CO1", "AC50": "> 42 µM (inactive)"}
{"smiles": "O=C(Cc1ccc(Cl)cc1Cl)OCC(=O)c1ccc[nH]1", "AC50": "> 42 µM (inactive)"}
{"smiles": "CC(=O)c1ccc(NC(=O)CSc2nnc(-c3ccco3)o2)cc1", "AC50": "> 42 µM (inactive)"}
{"smiles": "CCN(CC)C(=O)CSc1nnc(SCc2ccc(Cl)cc2)s1", "AC50": "> 42 µM (inactive)"}
{"smiles": "O=c1nc2ccc(Cl)cn2c2ccc(S(=O)(=O)N3CCOCC3)cc12", "AC50": "> 42 µM (inactive)"}
{"smiles": "CCOC(=O)C1(Cc2cccc(Cl)c2)CCCN(C(=O)CCOC)C1", "note": "(centres undefined)", "AC50": "> 42 µM (inactive)"}
{"smiles": "COc1ccc(C(=O)CC(=O)C(=O)Nc2ccc(C)c(Cl)c2)cc1", "AC50": "> 42 µM (inactive)"}
{"smiles": "Cc1ccc(-n2c(SCC(=O)N(C)C3CCS(=O)(=O)C3)nc3ccccc3c2=O)cc1", "note": "(centres undefined)", "AC50": "> 42 µM (inactive)"}
{"smiles": "O=C1c2cc(N3CCCC3)c([N+](=O)[O-])cc2C(=O)N1c1ccccc1", "AC50": "> 42 µM (inactive)"}
{"smiles": "CCCc1ccccc1OCCNC(C)=O", "AC50": "> 42 µM (inactive)"}
{"smiles": "COc1cc(NC(=O)CCN2CCN(Cc3ccccc3)CC2)cc(OC)c1", "AC50": "> 42 µM (inactive)"}
{"smiles": "CCOc1ccc(NC(=O)CNc2ccc(C)cc2Cl)cc1", "AC50": "> 42 µM (inactive)"}
{"smiles": "O=C(COc1ccccc1)NCCS(=O)(=O)N1CCN(c2ccccc2)CC1", "AC50": "> 42 µM (inactive)"}
{"smiles": "O=C(O)C1C2CCCCC2=C2CCCCC2C1C(=O)c1ccccc1", "note": "(centres undefined)", "AC50": "> 42 µM (inactive)"}
{"smiles": "O=C(O)COc1ccc(Br)cc1/C=N\\Nc1ccccn1", "AC50": "> 42 µM (inactive)"}
{"smiles": "O=C(Cn1nc(C(F)(F)F)c2c1CCCC2)N1CCOCC1", "AC50": "> 42 µM (inactive)"}
{"smiles": "C[C@]12CC[C@H]3C(=CCc4cc(O)ccc43)[C@@H]1CCC2=O", "AC50": "> 42 µM (inactive)"}
{"smiles": "CC1=CC(=O)C=CC1(C)C(Cl)(Cl)Cl", "note": "(centres undefined)", "AC50": "> 42 µM (inactive)"}
{"smiles": "Cc1cnc(=O)[nH]c1SCC(=O)c1ccc(F)cc1", "AC50": "> 42 µM (inactive)"}
{"smiles": "CCc1nn(C)c(N)c1C", "AC50": "> 42 µM (inactive)"}
{"smiles": "Cc1ccc(C)c(C(C)NC(=O)c2ccncc2)c1", "note": "(centres undefined)", "AC50": "> 42 µM (inactive)"}
{"smiles": "CCc1nc2ccc(C(=O)N3CCN(CC)CC3)cc2nc1CC", "AC50": "> 42 µM (inactive)"}
